According to patent US20250136552A1, “ANTAGONISTS OF CAV 2.3” (LARIO THERAPEUTICS LIMITED, priority 2021, published 2025):

Biological target: Cav2.3 (Homo sapiens, UniProt Q15878)
Experiment: Human Cav2.3 channel calcium-influx assay
Type: cell-based
Conditions: HEK-293 T-Rex/Kir2.1 cells with inducible Cav2.3e-β4-α2δ1; Fluo8 fluorescence; 8-point dose response from 30 μM; no pluronic acid; read-out: Cav2.3 (pIC50) (converted)
Method: HEK-293 T-Rex cells were transfected with pcDNA3.1-Kir2.1 to generate a stable cell line. After antibiotic selection, the obtained stable pools were analysed using FLIPR^TETRA(membrane potential assay), and a limiting dilution was performed and a HEK-293 T-Rex/Kir2.1 clone was selected. The clone was transfected with pcDNA3.1-Cav2.3e and pBud-Cav-β4-α2δ1 to generate a stable cell line where the Cav2.3e expression is inducible. After antibiotic selection, functional clone pool analysis and two successive limiting dilutions, the final clone underwent a qPCR analysis and a biophysical and pharmacological validation using patch-clamp.
A compound plate, containing 10 test compounds in eight-points dose response with n=4, was prepared. Test compounds dose response curves were prepared in automated fashion in 100% DMSO at CyBio Felix and starting from a stock solution in 100% DMSO; a defined volume was serially moved into destination wells pre-filled with the desired DMSO volume; stock solution concentration volumes were dependent on the final compounds concentrations to be tested and the final DMSO content used in the assay. For the assay test compounds dose response curves ranged from 30 μM and half log dilution with 0.3% final DMSO. In order to obtain the 8-points dose response curve all the concentrations were created by starting from a 10 mM DMSO stock solution and then moving 9.5 μL into a destination well pre-filled with 20.5 μL of 100% DMSO and repeating this step seven times. This initial step was done into 96 MTP plates, 10 compounds/plate. One 384 MTP was then reformatted to contain all the 10 compounds at 8 concentrations, quadruplicate data points. This so obtained 384 MTP compound plate served as source plate in a “mother to child” process with a CyBi®-Well dispenser in which 0.7 μL of compounds were moved into a destination plate pre-filled with 57.6 μL of Tyrode's buffer 0 mM K^+, thus obtaining 4× concentrated compounds solution. In columns 1-2 and 23-24 the control wells were added. Both “source” compound plate and “destination” compound plate were barcoded and a relationship between the two plates was thus generated.
The day before the experiment, cells were detached by gentle wash with DPBS, followed by 5 min incubation at 37° C. with Trypsin solution. Detached cells were diluted with OptiMEM+Doxycycline at 0.2 μg/mL, counted and plated in Poly-D-Lysine coated black/clear bottom (15.000 c/well in 20 μl/well) by the use of a MATRIX WellMate dispenser. Plates were placed into a humidified incubator at 37° C. with 5% CO2 until the experimental day. 24 h after seeding 10 μL/well of 1.5× Fluo8 NW dye solution prepared in Tyrode's buffer 0 mM K^+ were added on top of the seeding medium. Cell plates were incubated for 40-60 min at RT in the dark. We then Injected off-line 10 μL/well of test compounds and controls 4× concentrated in Tyrode's Buffer 0 mM K+ with the CyBi®-Well instrument. Cell plates were incubated 3 minutes at RT. Finally, we injected 20 μL/well of 3× concentrated activator solution (K20-Na130-Ca2 buffer: 20 mM KCl, 130 mM NaCl, 2 mM CaCl2, 10 mM HEPES, 10 mM Glucose, final concentrations, prepared starting from “K0-Na150-Ca2” and “K150-Na0-Ca2” buffers) at FDSS7000EX instrument and read emitted fluorescence for 130 seconds.
Data analysis was performed with Genedata Screener® software and reported compounds activity as % effect in relation to the normalization standards. The Kinetic Response Value (KRV) is calculated as follows:
KRV=Maximal fluorescence recorded from second 5 to second 130 minus baseline fluorescence, computed as average from second 1 to second 2, of the kinetic trace. The KRV was normalized versus Neutral Controls and Inhibitor Controls in order to obtain the Activity[%] for each well. […] Therefore, the compound activity values were scaled (based on the two references) to a common range (two-point normalization). […]

Cav2.3, sequence (Q15878 1-2270 isoform Q15878-3): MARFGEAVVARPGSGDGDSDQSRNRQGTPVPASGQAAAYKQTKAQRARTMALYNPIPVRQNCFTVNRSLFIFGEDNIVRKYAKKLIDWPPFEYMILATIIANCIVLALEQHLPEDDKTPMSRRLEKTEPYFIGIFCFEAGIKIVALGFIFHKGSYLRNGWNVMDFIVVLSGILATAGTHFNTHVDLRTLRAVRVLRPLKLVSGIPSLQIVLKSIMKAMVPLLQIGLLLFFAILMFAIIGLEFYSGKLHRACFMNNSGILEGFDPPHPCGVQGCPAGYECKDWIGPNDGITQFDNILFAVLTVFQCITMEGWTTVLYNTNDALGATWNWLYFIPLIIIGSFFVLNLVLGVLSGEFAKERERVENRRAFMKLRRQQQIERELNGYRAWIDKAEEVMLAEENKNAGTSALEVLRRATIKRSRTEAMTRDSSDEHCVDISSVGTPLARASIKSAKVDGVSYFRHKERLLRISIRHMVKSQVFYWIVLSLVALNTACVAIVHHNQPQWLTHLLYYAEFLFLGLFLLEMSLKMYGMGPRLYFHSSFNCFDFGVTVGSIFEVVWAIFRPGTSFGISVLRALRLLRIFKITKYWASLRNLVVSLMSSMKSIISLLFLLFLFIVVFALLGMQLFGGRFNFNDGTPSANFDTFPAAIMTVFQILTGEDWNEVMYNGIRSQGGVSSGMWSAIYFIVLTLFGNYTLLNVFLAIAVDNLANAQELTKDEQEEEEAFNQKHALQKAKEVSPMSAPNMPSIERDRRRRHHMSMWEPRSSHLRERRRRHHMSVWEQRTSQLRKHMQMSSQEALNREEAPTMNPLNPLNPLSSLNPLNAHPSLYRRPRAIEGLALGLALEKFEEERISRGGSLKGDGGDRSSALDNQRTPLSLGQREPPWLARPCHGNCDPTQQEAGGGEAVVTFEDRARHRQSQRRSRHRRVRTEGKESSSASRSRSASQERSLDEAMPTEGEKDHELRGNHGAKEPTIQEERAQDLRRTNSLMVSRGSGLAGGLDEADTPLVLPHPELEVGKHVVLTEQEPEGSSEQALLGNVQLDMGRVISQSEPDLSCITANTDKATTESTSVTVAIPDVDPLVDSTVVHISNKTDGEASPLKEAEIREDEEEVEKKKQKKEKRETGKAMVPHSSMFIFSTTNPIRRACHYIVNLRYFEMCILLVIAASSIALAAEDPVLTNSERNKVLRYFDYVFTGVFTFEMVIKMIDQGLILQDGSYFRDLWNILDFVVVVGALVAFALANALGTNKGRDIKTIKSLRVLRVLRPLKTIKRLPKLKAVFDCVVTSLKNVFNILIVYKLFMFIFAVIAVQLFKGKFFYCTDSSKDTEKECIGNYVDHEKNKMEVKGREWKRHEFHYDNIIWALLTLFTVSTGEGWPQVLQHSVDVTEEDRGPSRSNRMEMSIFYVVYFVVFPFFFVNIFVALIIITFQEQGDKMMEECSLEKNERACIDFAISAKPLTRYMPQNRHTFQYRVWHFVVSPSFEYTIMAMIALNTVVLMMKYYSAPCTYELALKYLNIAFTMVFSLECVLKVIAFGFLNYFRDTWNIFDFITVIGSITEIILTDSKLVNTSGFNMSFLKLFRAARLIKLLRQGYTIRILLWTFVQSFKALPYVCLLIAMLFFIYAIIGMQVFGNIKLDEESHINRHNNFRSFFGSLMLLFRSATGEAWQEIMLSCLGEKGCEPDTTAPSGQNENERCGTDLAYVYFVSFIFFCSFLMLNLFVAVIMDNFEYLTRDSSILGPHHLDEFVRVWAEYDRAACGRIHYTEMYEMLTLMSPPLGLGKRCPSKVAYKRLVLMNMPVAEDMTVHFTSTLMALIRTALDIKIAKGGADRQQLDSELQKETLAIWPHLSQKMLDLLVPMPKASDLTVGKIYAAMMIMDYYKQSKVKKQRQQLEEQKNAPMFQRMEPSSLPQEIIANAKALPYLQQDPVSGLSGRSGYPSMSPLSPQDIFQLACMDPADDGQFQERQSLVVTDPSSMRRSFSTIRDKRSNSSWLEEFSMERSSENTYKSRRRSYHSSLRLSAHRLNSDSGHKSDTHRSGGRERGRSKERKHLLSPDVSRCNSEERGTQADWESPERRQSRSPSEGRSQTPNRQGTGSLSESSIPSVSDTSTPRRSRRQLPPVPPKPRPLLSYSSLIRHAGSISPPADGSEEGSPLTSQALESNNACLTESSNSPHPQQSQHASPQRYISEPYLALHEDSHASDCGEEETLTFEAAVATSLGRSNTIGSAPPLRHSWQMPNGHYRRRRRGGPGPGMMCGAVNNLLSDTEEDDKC

Compound	IC50
CCN([C@@H](C)c1ccc(F)cc1)S(=O)(=O)c1cnc2c(c1)CCN(C(=O)C1CC1)C2 [Example 32, (S)-7-(cyclopropanecarbonyl)-N-ethyl-N-(1-(4-fluorophenyl)ethyl)-5,6,7,8-tetrahydro-1,7-naphthyridine-3-sulfonamide]	2290 nM
CCN([C@@H](C)c1ccc(F)cc1)S(=O)(=O)c1ccc2c(n1)CCN(C(=O)C1CC1)C2 [Example 33, (S)-6-(cyclopropanecarbonyl)-N-ethyl-N-(1-(4-fluorophenyl)ethyl)-5,6,7,8-tetrahydro-1,6-naphthyridine-2-sulfonamide]	3630 nM
CCN([C@@H](C)c1ccc(F)cc1)S(=O)(=O)c1cc2c(cn1)CN(C(=O)C1CC1)CC2 [Example 34, (S)-7-(cyclopropanecarbonyl)-N-ethyl-N-(1-(4-fluorophenyl)ethyl)-5,6,7,8-tetrahydro-2,7-naphthyridine-3-sulfonamide]	3020 nM
CC(C)C(=O)N1CCCc2cc(S(=O)(=O)N(C)[C@@H](C)c3ccccc3)ccc2C1 [Example 35, (S)-2-Isobutyryl-N-methyl-N-(1-phenylethyl)-2,3,4,5-tetrahydro-1H-benzo[c]azepine-7-sulfonamide]	3160 nM
CC(C)C(=O)N1CCc2ccc(S(=O)(=O)N(C)[C@@H](C)c3ccccc3)cc2CC1 [Example 36, (S)-3-isobutyryl-N-methyl-N-(1-phenylethyl)-2,3,4,5-tetrahydro-1H-benzo[d]azepine-7-sulfonamide]	1950 nM
CC(C)N1CCc2cc(S(=O)(=O)N(C)[C@@H](C)c3ccccc3)ccc2C1=O [Example 37, (S)-2-isopropyl-N-methyl-1-oxo-N-(1-phenylethyl)-1,2,3,4-tetrahydroisoquinoline-6-sulfonamide]	6460 nM
C[C@@H](c1ccccc1)N(C)S(=O)(=O)c1ccc2c(c1)CCN(C)C2=O [Example 38, (S)-N,2-dimethyl-1-oxo-N-(1-phenylethyl)-1,2,3,4-tetrahydroisoquinoline-6-sulfonamide]	6610 nM
CC(C)N1Cc2ccc(S(=O)(=O)N(C)[C@@H](C)c3ccccc3)cc2CC1=O [Example 39, (S)-2-isopropyl-N-methyl-3-oxo-N-(1-phenylethyl)-1,2,3,4-tetrahydroisoquinoline-6-sulfonamide]	11700 nM
CC(C)C(=O)N1Cc2ccc(S(=O)(=O)N(C)[C@@H](C)c3ccccc3)cc2C1 [Example 40, (S)-2-isobutyryl-N-methyl-N-(1-phenylethyl)isoindoline-5-sulfonamide]	2880 nM
CCN([C@H](c1ccc(F)cc1)C(F)(F)F)S(=O)(=O)c1ccc2c(c1)CN(C(=O)C(C)(C)F)CC2 [Example 41, (R)-N-ethyl-2-(2-fluoro-2-methylpropanoyl)-N-(2,2,2-trifluoro-1-(4-fluorophenyl)ethyl)-1,2,3,4-tetrahydroisoquinoline-7-sulfonamide]	891 nM
CCN([C@@H](c1ccc(F)cc1)C(F)(F)F)S(=O)(=O)c1ccc2c(c1)CN(C(=O)C(C)(C)F)CC2 [Example 42, (S)-N-ethyl-2-(2-fluoro-2-methylpropanoyl)-N-(2,2,2-trifluoro-1-(4-fluorophenyl)ethyl)-1,2,3,4-tetrahydroisoquinoline-7-sulfonamide]	2630 nM

Other lines, results leading:

IC50	Compound
589 nM	CCN(C(c1ccc(F)cc1)C(F)(F)F)S(=O)(=O)c1ccc2c(c1)CN(C(=O)C1CCOCC1)CC2 (stereo not shown) [Example 43, N-ethyl-2-(tetrahydro-2H-pyran-4-carbonyl)-N-(2,2,2-trifluoro-1-(4-fluorophenyl)ethyl)-1,2,3,4-tetrahydroisoquinoline-7-sulfonamide]
2040 nM	CCN(C(c1ccc(F)cc1)C(F)(F)F)S(=O)(=O)c1ccc2c(c1)CN(C(=O)C1COC1)CC2 (stereo not shown) [Example 44, N-ethyl-2-(oxetane-3-carbonyl)-N-(2,2,2-trifluoro-1-(4-fluorophenyl)ethyl)-1,2,3,4-tetrahydroisoquinoline-7-sulfonamide]
525 nM	CCN(C(c1ccc(F)cc1)C(F)(F)F)S(=O)(=O)c1ccc2c(c1)CN(C1COC1)CC2 (stereo not shown) [Example 45, N-ethyl-2-(oxetan-3-yl)-N-(2,2,2-trifluoro-1-(4-fluorophenyl)ethyl)-1,2,3,4-tetrahydroisoquinoline-7-sulfonamide]
316 nM	CCN(C(c1ccc(F)cc1)C(F)(F)F)S(=O)(=O)c1ccc2c(c1)CN(C(=O)C1CC1)CC2 (stereo not shown) [Example 46, 2-(Cyclopropanecarbonyl)-N-ethyl-N-(2,2,2-trifluoro-1-(4-fluorophenyl)ethyl)-1,2,3,4-tetrahydroisoquinoline-7-sulfonamide]
4570 nM	CCN([C@@H](c1ccc(F)cc1)C(F)(F)F)S(=O)(=O)c1ccc2c(c1)CN(C(=O)C1CC1)CC2 [Example 47, (S)-2-(Cyclopropanecarbonyl)-N-ethyl-N-(2,2,2-trifluoro-1-(4-fluorophenyl)ethyl)-1,2,3,4-tetrahydroisoquinoline-7-sulfonamide]
427 nM	CCN([C@H](c1ccc(F)cc1)C(F)(F)F)S(=O)(=O)c1ccc2c(c1)CN(C(=O)C1CC1)CC2 [Example 48, (R)-2-(Cyclopropanecarbonyl)-N-ethyl-N-(2,2,2-trifluoro-1-(4-fluorophenyl)ethyl)-1,2,3,4-tetrahydroisoquinoline-7-sulfonamide]
3310 nM	CC(C)C(=O)N1CCc2ccc(S(=O)(=O)N(CCF)[C@@H](c3ccc(F)cc3)C(F)(F)F)cc2C1 [Example 50, (S)-N-(2-fluoroethyl)-2-isobutyryl-N-(2,2,2-trifluoro-1-(4-fluorophenyl)ethyl)-1,2,3,4-tetrahydroisoquinoline-7-sulfonamide]
417 nM	CC(C)C(=O)N1CCc2ccc(S(=O)(=O)N(CCF)[C@H](c3ccc(F)cc3)C(F)(F)F)cc2C1 [Example 51, (R)-N-(2-fluoroethyl)-2-isobutyryl-N-(2,2,2-trifluoro-1-(4-fluorophenyl)ethyl)-1,2,3,4-tetrahydroisoquinoline-7-sulfonamide]
